Measured values: patent publication US8431611B2, “Artemisinin derivatives” (Johns Hopkins University, priority 2006, dated 2013)
≈ marks a conversion by molar mass, not a printed value. Entries after “also recorded” stand apart in the source; their conditions may differ. Where two headings read alike, the source gives them in different places.

What was measured:
T. gondii strain 2F = experiment: In vitro inhibition of T. gondii (growth inhibition assay); format: cell-based, Toxoplasma gondii; conditions: for antitoxoplasma inhibitory activity (growth inhibition assay): in words
Experimental: (§1) Normal human foreskin fibroblasts (American Type Culture Collection, Manassas, Va.) were used to grow tachyzoites and to test compounds for activity and cytotoxicity. Cells were maintained in Dulbecco's modified Eagle medium (Gibco, Grand Island, N.Y.) containing 10% fetal bovine serum (Atlas Biologicals, Fort Collins, Colo.), 25 mM HEPES (Gibco), 2 mM L-glutamine, 50 units of penicillin G per ml, and 50 μg of streptomycin sulfate per ml. A culture of the tachyzoites of T. gondii strain 2F, which constitutively expresses cytoplasmic β-galactosidase and is derived from strain RH (5), was a gift from Vern Carruthers, University of Michigan Medical School.
(§2) The compounds were tested for in vitro efficacy against T. gondii and cytotoxicity by previously published methods (9, 10). The median inhibitory dose (50% inhibitory dose [ID50]) and the median cytotoxic dose (50% toxic dose [TD50]) were calculated by extrapolation of the corresponding dose-response curve on a log-linear plot employing the portions of the curve that transected the 50% response point. For each compound, a therapeutic index (TI) was calculated by the formula TI=TD50/ID50.
(§3) Artemisinin was obtained from Holley Pharmaceuticals Co., Inc., Fullerton, Calif. Artemether was generously donated by Huiling Wang, University of Wuhan, China. Trimethoprim was purchased from Sigma Chemical Co. (St. Louis, Mo.). Chlorophenol red-β-D-galactopyranoside (Roche, Indianapolis, Ind.), 100 mM in 100 mM HEPES (pH 7.2), was stored frozen at −80° C. CellTiter 96 AQueous One Solution Reagent for determining cytotoxicity was purchased from Promega Corp., Madison, Wis.

[1] = system: Normal human foreskin fibroblasts; format: cell-based
Experimental: as §1, §2, §3

T. gondii tachyzoites [2] = experiment: Replication inhibition assay; format: cell-based, Toxoplasma gondii; conditions: 10 μg/ml added 2 hours after infection of HFF cells, 26 hours; FIG. 2
Experimental: (§4) FIG. 2 illustrates the replication inhibition assay. T. gondii tachyzoites are allowed to infect HFF cells for 2 hours. Following this, compounds are added to the cells for a final concentration of 10 μg/ml and the infection is allowed to progress for 26 hours. Data are compiled from ten randomly selected fields wherein number of vacuoles and number of parasites within the vacuoles are enumerated. Control represents no drug added.
as §4, with “assay (14).” for “assay.”

T. gondii tachyzoites [3] = experiment: Quantification of invasion using red/green assay (attachment/penetration); format: cell-based, Toxoplasma gondii; conditions: 10 μg/ml (range 25-34 μM); FIG. 1
Experimental: (§5) FIG. 1 illustrates the quantification of invasion using red/green assay. Green bars represent internal/penetrated parasites while red bars depict external/attached parasites. Compounds were tested at 10 μg/ml (range 25-34 μM). BAPTA-AM (20 μM) and cytochalasin D (Cyt D, 2 μM) were included as positive controls for inhibition of attachment or penetration, respectively. Data are mean values±SEM of three independent experiments, counting ten random fields for each sample.
as §5, with “red/green assay (8). Black” for “red/green assay. Green”, “while gray” for “while red”

[4] = system: chloroquine-sensitive Plasmodium falciparum (NF 54); experiment: Inhibition of replication of malaria parasites; format: cell-based; conditions: unpublished data of J. D'Angelo and G. Posner
[5] = Table 1, T. gondii in human foreskin fibroblasts
[6] = Toxoplasma gondii, Fibroblast, Table 1, T. gondii in human foreskin fibroblasts, read-out: ID50 (the source's name)
[7] = Toxoplasma gondii, Table 2, average of three independent experiments, read-out: ID50 (the source's name)
[8] = Toxoplasma gondii, summary of Table 1, read-out: concentration inhibiting toxoplasma replication
[9] = Table 1, T. gondii in human foreskin fibroblasts, read-out: ID50 (the source's name)
[10] = Table 2, average of three independent experiments, read-out: ID50 (the source's name)

CO[C@H]1O[C@@H]2O[C@@]3(C)CC[C@H]4[C@H](C)CC[C@@H]([C@H]1C)[C@@]24OO3 [Artemether, reference compound]
ID50 (T. gondii strain 2F; [5]): 0.2 µg/mL (≈ 0.67 µM) | IC50 (T. gondii strain 2F; [6]): 700 nM | IC50 (T. gondii strain 2F; [7]): 370 nM | IC50 (T. gondii strain 2F; [8]): < 1 µg/mL | concentration of 50% cytotoxicity (TD50) ([1]; human): > 160 µg/mL

C[C@@H]1CC[C@H]2[C@@H](C)C(=O)O[C@@H]3O[C@@]4(C)CC[C@@H]1[C@]32OO4 [Artemisinin]
ID50 (T. gondii strain 2F; [5]): 2.3 µg/mL (≈ 8.15 µM) | IC50 (T. gondii strain 2F; [6]): 8000 nM | IC50 (T. gondii strain 2F; [8]): 2 to 3 µg/mL | inhibition of T. gondii replication (T. gondii tachyzoites [2]): ineffective | inhibition of attachment of T. gondii tachyzoites to HFF cells (T. gondii tachyzoites [3]): exception

C[C@H]1[C@@H](CCCO)O[C@@H]2O[C@]3(C)CC[C@H]4[C@H](C)CC[C@@H]1[C@@]24OO3 [Compound 2a, ART-PrOH]
ID50 (T. gondii strain 2F; [5]): 2.7 µg/mL (≈ 8.27 µM) | IC50 (T. gondii strain 2F; [6]): 8300 nM | IC50 (T. gondii strain 2F; [8]): 2 to 3 µg/mL

CC1CCC2C(C)C(CCCOC(=O)c3ccccc3)OC3OC4(C)CCC1C32OO4 (stereo not drawn) [Compound 2b]
ID50 (T. gondii strain 2F; [5]): 0.6 µg/mL (≈ 1.39 µM) | IC50 (T. gondii strain 2F; [9]): 1400 nM

CC1CCC2C(C)C(CCCOC(=O)c3ccccc3Br)OC3OC4(C)CCC1C32OO4 (stereo not drawn) [Compound 2c]
ID50 (T. gondii strain 2F; [5]): 0.6 µg/mL (≈ 1.18 µM) | IC50 (T. gondii strain 2F; [9]): 1200 nM

CC(C)=CCCC(C)CCOCCCC1OC2OC3(C)CCC4C(C)CCC(C1C)C24OO3 (stereo not drawn) [Compound 2d]
ID50 (T. gondii strain 2F; [5]): 0.5 µg/mL (≈ 1.08 µM) | IC50 (T. gondii strain 2F; [9]): 1100 nM | concentration of 50% cytotoxicity (TD50) [1]: > 160 µg/mL

CC1=C(c2nccs2)OC2OC3(C)CCC4C(C)CCC1C24OO3 (stereo not drawn) [Compound 3a, DART-Thiaz]
IC50 (T. gondii strain 2F; [10]): 1700 nM | inhibition of T. gondii replication (T. gondii tachyzoites [2]): moderate inhibition

CC1=C(c2nc3ccccc3s2)OC2OC3(C)CCC4C(C)CCC1C24OO3 (stereo not drawn) [Compound 3b, DART-Benzothiazole]
IC50 (T. gondii strain 2F; [10]): 1000 nM | inhibition of T. gondii replication (T. gondii tachyzoites [2]): quite effective

CC1=C(C=O)OC(C)C1C (stereo not drawn) [Compound 3c, DART-ald]
IC50 (T. gondii strain 2F; [7]): 1000 nM | inhibition of T. gondii replication (T. gondii tachyzoites [2]): quite effective

CC1=C(C(=O)O)OC(C)C1C (stereo not drawn) [Compound 3d, DART-C(O)—OH]
IC50 (T. gondii strain 2F; [7]): 40300 nM | inhibition of T. gondii replication (T. gondii tachyzoites [2]): ineffective

COC(=O)C1=C(C)C(C)C(C)O1 (stereo not drawn) [Compound 3e, DART-C(O)—OMe]
IC50 (T. gondii strain 2F; [7]): 2900 nM | concentration of 50% cytotoxicity (TD50) ([1]; human): > 160 µg/mL | inhibition of T. gondii replication (T. gondii tachyzoites [2]): moderate inhibition

CCNC(=O)C1=C(C)C(C)C(C)O1 (stereo not drawn) [Compound 3f, DART-C(O)—NHEt]
IC50 (T. gondii strain 2F; [7]): 4400 nM | inhibition of T. gondii replication (T. gondii tachyzoites [2]): moderate inhibition | inhibition of attachment of T. gondii tachyzoites to HFF cells (T. gondii tachyzoites [3]): exception

C[C@H]1[C@@H](CCCO)O[C@@H]2O[C@]3(C)CC[C@H]4[C@H](C)CC[C@@H]1[C@@]24O3 [Deoxy-2a, Deoxy-ART-PrOH]
ID50 (T. gondii strain 2F; [5]): 173 µg/mL (≈ 557 µM) | IC50 (T. gondii strain 2F; [6]): 560000 nM | antitoxoplasma inhibitory activity (growth inhibition assay) (T. gondii strain 2F): virtually no inhibitory activity; also recorded: devoid of antitoxoplasma activity | antimalaria activity [4]: virtually no antimalaria activity

CC1=C(c2nccs2)OC2O[C@]3(C)CC[C@H]4[C@H](C)CC[C@@H]1[C@@]24O3 (stereo partly drawn) [Deoxy-3a, deoxy-DART-thiaz]
IC50 (T. gondii strain 2F; [7]): 960000 nM | antitoxoplasma inhibitory activity (growth inhibition assay) (T. gondii strain 2F): little or no efficacy; also recorded: devoid of antitoxoplasma activity | inhibition of T. gondii replication (T. gondii tachyzoites [2]): ineffective | antimalaria activity [4]: virtually no antimalaria activity | inhibition of attachment of T. gondii tachyzoites to HFF cells (T. gondii tachyzoites [3]): effective in inhibition of attachment

COc1cc(Cc2cnc(N)nc2N)cc(OC)c1OC [Trimethoprim, reference compound]
ID50 (T. gondii strain 2F; [5]): 5.2 µg/mL (≈ 17.9 µM) | IC50 (T. gondii strain 2F; Toxoplasma gondii, Fibroblast, read-out: ID50): 17900 nM | IC50 (T. gondii strain 2F; Toxoplasma gondii, read-out: ID50): 19000 nM | IC50 (T. gondii strain 2F; Toxoplasma gondii, read-out: concentration inhibiting toxoplasma replication): 5.2 µg/mL | concentration of 50% cytotoxicity (TD50) ([1]; human): 60 µg/mL
